Results taken from EP0012051A1, “3-Amino-2,4-dioxo-(1H,3H)-quinazolines, process for their preparation and therapeutic composition containing them” (Société dite: BERRI-BALZAC, priority 1978, dated 1980).

Tested on: rats mâles
Assay: Diuretic action with water overload in the rat (modified Lipschitz technique, oral)
Format: in vivo
Conditions: for K = nbre de meq/L pour 100 g d'animal / Na = nbre de meq/L pour 100 g d'animal / dV = pourcentage du volume d'urine émise par rapport au lot témoin et ramené à 100 g de poids corporel: rat, oral, surcharge hydrique; for K = nbre de meq/L pour 100 g d'animal / Na = nbre de meq/L pour 100 g d'animal: 6 h urine; for dV = pourcentage du volume d'urine émise par rapport au lot témoin et ramené à 100 g de poids corporel: 6 h; for diurèse: summary in words of tableaux I à III
Excerpt: L'étude de l'activité diurétique a été effectuée comme suit : • l'expérience a été réalisée en utilisant la technique de LIPSCHITZ & Coll. (J. Pharm. Exp. Ther. 1943, 79, p. 97) modifiée pour la circonstance.
Des lots de 6 rats mâles, pesant environ 150 g, mis à jeun et privés de boisson la veille de l'essai, ont été placés par deux dans des cages à métabolisme pour une durée de 6 heures.
Les produits à essayer ont été administrés par voie orale, à la sonde, en même temps qu'une surcharge hydrique (eau du robinet à 37 °C), à raison de 5 ml pour 100 g de poids corporel.
Les volumes urinaires ont été recueillis et mesurés toutes les heures, et la quantité d'urine excrétée est donnée en ml par heure et par rat.
Les dosages du chlore, du sodium et du potassium sont effectués sur les prélèvements de 6 heures et sont exprimés en Meq par litre d'urine et par 100 g de rat.
A partir de ces chiffres et par rapport aux témoins, des pourcentages d'augmentation ou de diminution de la diurèse ont pu être calculés.
L'excrétion urinaire est donnée par le rapport : [formula]
L'activité diurétique est obtenue en faisant le rapport : • E.U. traités • E.U. témoins
Dans le tableau I figure l'action diurétique avec surcharge hydrique pour les composés A, B et C, et pour le furosémide et l'hydrochlorothiazide.

Structure (SMILES)	K = nbre de meq/L pour 100 g d'animal (dose 1 mg/kg)	Na = nbre de meq/L pour 100 g d'animal (dose 1 mg/kg)	dV = pourcentage du volume d'urine émise par rapport au lot témoin et ramené à 100 g de poids corporel (dose 10 mg/kg)	K = nbre de meq/L pour 100 g d'animal (dose 10 mg/kg)	Na = nbre de meq/L pour 100 g d'animal (dose 10 mg/kg)	dV = pourcentage du volume d'urine émise par rapport au lot témoin et ramené à 100 g de poids corporel (dose 25 mg/kg)	K = nbre de meq/L pour 100 g d'animal (dose 25 mg/kg)	Na = nbre de meq/L pour 100 g d'animal (dose 25 mg/kg)	dV = pourcentage du volume d'urine émise par rapport au lot témoin et ramené à 100 g de poids corporel (dose 50 mg/kg)	K = nbre de meq/L pour 100 g d'animal (dose 50 mg/kg)	Na = nbre de meq/L pour 100 g d'animal (dose 50 mg/kg)	diurèse	K = nbre de meq/L pour 100 g d'animal (dose 0,1 mg/kg)	dV = pourcentage du volume d'urine émise par rapport au lot témoin et ramené à 100 g de poids corporel (dose 1 mg/kg)
CCN(CC)n1c(=O)[nH]c2cc(Cl)c(S(N)(=O)=O)cc2c1=O [Composé B, Chloro-7 diéthylamino-3 dioxo-2,4 (1H,3H) sulfonamido-6 quinazoline]	+15 meq/L pour 100 g d'animal	+160 meq/L pour 100 g d'animal	+30%	+35 meq/L pour 100 g d'animal	+582 meq/L pour 100 g d'animal	+35%	+33 meq/L pour 100 g d'animal	+671 meq/L pour 100 g d'animal	+31%	+21 meq/L pour 100 g d'animal	+550 meq/L pour 100 g d'animal	augmentent la diurèse		
NS(=O)(=O)c1cc2c(=O)n(N3CCCCC3)c(=O)[nH]c2cc1Cl [Composé C, Chloro-7 pipéridino-3 dioxo-2,4 (1H,3H) sulfonamido-6 quinazoline]	+17 meq/L pour 100 g d'animal	+141 meq/L pour 100 g d'animal	+35%	+47 meq/L pour 100 g d'animal	+513 meq/L pour 100 g d'animal	+31%	+42 meq/L pour 100 g d'animal	+583 meq/L pour 100 g d'animal	+18%	+57 meq/L pour 100 g d'animal	+531 meq/L pour 100 g d'animal	augmentent la diurèse	+15 meq/L pour 100 g d'animal	+15%
